In patent publication US20230099106A1, “PRODRUGS USEFUL IN ADOPTIVE CELL THERAPY” (Memorial Sloan Kettering Cancer Center, priority 2020, published 2023):
Where two headings read alike, the source gives them in different places.

Experiments:
[1] = system: PC9 (adenocarcinoma); assay: Cell-Titer Glo cytotoxicity assay, PC9 cells; type: cell-based; details: for IC50: Homo sapiens, PC-9, 48 hours of drug treatment, ≥ 6 drug dilutions (3-fold)
Protocol: (§1) Prodrug/Drug IC50 and trans and cis-toxicity assays with secreted enzyme were performed using Cell-Titer Glo (Promega). Cells were analyzed in triplicate wells of a 96-well dish and equivalent volume of Cell-Titer Glo reagent was added to each well. Following a 10-minute incubation at room temperature samples were transferred to White 96-well Optiplate (Perkin Elmer) and luminescence was measured on a SpectraMax M2 plate reader (Molecular Devices). Data were analyzed with SoftMax Pro software.

[2] = system: HCC827 (adenocarcinoma); assay: Cell-Titer Glo cytotoxicity assay, HCC827 cells; type: cell-based; details: for IC50: Homo sapiens, 48 hours of drug treatment, ≥ 6 drug dilutions (3-fold); for cytotoxicity (cell viability): HCC827, 48 hrs
Protocol: FIG. 3 provides the results of HCC827 cells incubated for 48 hrs. with or without CPG2 in the presence of APdMG-Glu where cell viability was measured by Cell-Titre Glo, according to the working examples. The viability of the cells incubated with the active version of the drug (O-(3-aminopropyl)-des-morpholino-gefitinib) are shown for comparison.
as §1

[3] = molecular target: T1, CPG2 (Pseudomonas sp., UniProt P06621); assay: Amplex Red glutamate release assay with recombinant CPG2; type: biochemical; details: incubated with recombinant CPG2, FIG. 2
T1 construct: HA (C); His (C); host or cells: E. coli
T1 sequence (P06621 23-415): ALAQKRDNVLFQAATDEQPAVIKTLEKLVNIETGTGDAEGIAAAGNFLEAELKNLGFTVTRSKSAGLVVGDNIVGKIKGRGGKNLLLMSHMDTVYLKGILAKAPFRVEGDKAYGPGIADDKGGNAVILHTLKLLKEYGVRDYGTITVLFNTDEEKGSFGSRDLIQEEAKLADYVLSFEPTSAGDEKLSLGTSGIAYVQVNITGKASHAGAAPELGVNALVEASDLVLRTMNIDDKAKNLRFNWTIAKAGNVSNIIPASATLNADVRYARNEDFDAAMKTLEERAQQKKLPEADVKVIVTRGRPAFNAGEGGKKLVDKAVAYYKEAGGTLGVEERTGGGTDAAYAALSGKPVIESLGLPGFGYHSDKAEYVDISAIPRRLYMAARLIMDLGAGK
Protocol: FIG. 2 provides the results of incubating APdMG-Glu, an embodiment of a prodrug compound of the present technology, with increasing concentration of recombinant CPG2 where glutamate release was measured in an Amplex Red assay, according to the working examples.
Recombinant CPG2 enzyme was incubated with prodrugs in CPG2 reaction buffer (1M TrisHCL, 2 mM ZnCl2) for 2 hr at 37° C. and the enzyme/prodrug mixture was combined 1:1 with Amplex Red™ Glutamate Oxidase Assay mixture (Thermo cat # A12221). Following 30 min at 37° C. fluorescent emission at 590 nm was measured on a SpectraMax M2 plate reader (Molecular Devices). Data were analyzed with SoftMax Pro software.

[4] = molecular target: T1, CPG2; type: biochemical; details: for Vmax: disappearance of substrate and/or appearance of product
Text: CPG2 proteins were produced and purified by GenScript. Constructs contain c-terminal HA and His epitope tags and were purified by nickel columns.

[5] = substrate of CPG2, RapidFire-MS

SMILES: COc1cc2ncnc(Nc3ccc(F)c(Cl)c3)c2cc1OCCCN [APdMG, 6-(3-Aminopropoxy)-N-(3-chloro-4-fluorophenyl)-7-methoxyquinazolin-4-amine]
- IC50 [1]: 210 nM
- IC50 ([2]; HCC827): 20 nM

SMILES: COc1cc2ncnc(Nc3ccc(F)c(Cl)c3)c2cc1OCCCNC(=O)OCc1ccc(NC(=O)N[C@@H](CCC(=O)O)C(=O)O)cc1 [APdMG-Glu, ((4-((((3-((4-((3-chloro-4-fluorophenyl)amino)-7-methoxyquinazolin-6-yl)oxy)propyl)carbamoyl)oxy)methyl)phenyl)carbamoyl)-L-glutamic acid]
- IC50 [1]: 240 nM
- Selective index ([1]; prodrug vs active drug): 6
- cleavage of the glutamate moiety (glutamate release) [3]: confirm cleavage of the glutamate moiety
- cytotoxicity (cell viability) ([2]; plus recombinant CPG2, FIG. 3): cytotoxicity comparable to that of the parent drug gefitinib
- cytotoxicity (cell viability) ([2]; prodrug alone without CPG2, FIG. 3): not APdMG-Glu alone
- Selective index ([2]; HCC827, prodrug vs active drug): 5.5
- IC50 ([2]; HCC827): 110 nM
- Km [4, 5]: 2.25 µM
- kcat [4, 5]: 0.137 s⁻¹
- Vmax [4, 5]: 0.10 µM/s

SMILES: CN(Cc1cnc2nc(N)nc(N)c2n1)c1ccc(C(=O)N[C@@H](CCC(=O)O)C(=O)O)cc1 [methotrexate, reference compound]
- Km [4]: 9.45 µM
- kcat [4, 5]: 10.36 s⁻¹
- Vmax [4, 5]: 0.39 µM/s
